Measurements taken from ChEMBL document CHEMBL5335843, “Application of tobramycin benzyl ether as an antibiotic adjuvant capable of sensitizing multidrug-resistant Gram-negative bacteria to rifampicin” (2024).
The source made the active and inactive calls. No cut-off for these calls is given here.

What was measured:
Enterococcus faecium [1] = assay: Antibiotic adjuvant activity against Enterococcus faecium 114278 assessed as rifampicin MIC incubated for 18 hrs in presence of rifampicin by two fold broth microdilution checkerboard assay; format: functional
Escherichia coli [2] = assay: Antibacterial activity against multi-drug resistant Escherichia coli clinical isolate 94474 assessed as inhibition of bacterial growth incubated for 18 hrs by two fold broth microdilution assay; format: functional
Acinetobacter baumannii [3] = assay: Antibiotic adjuvant activity against multi-drug resistant Acinetobacter baumannii clinical isolate 92247 assessed as fold potentiation incubated for 18 hrs in presence of Rifampicin by two fold broth microdilution checkerboard assay; format: functional
Acinetobacter baumannii [4] = assay: Antibiotic adjuvant activity against multi-drug resistant Acinetobacter baumannii clinical isolate LAC-4 assessed as inhibition of bacterial growth incubated for 18 hrs in presence of Rifampicin by two fold broth microdilution checkerboard assay; format: functional
Pseudomonas aeruginosa [5] = assay: Antibiotic adjuvant activity against multi-drug resistant Pseudomonas aeruginosa clinical isolate PA114228 assessed as fractional inhibitory concentration index incubated for 18 hrs in presence of minocycline by two fold broth microdilution checkerboard assay; format: functional
Acinetobacter baumannii [6] = assay: Antibiotic adjuvant activity against Acinetobacter baumannii ATCC 17978 at 8 to 11 ug/ml incubated for 18 hrs in presence of rifampicin and 10 % FBS media by two fold broth microdilution checkerboard assay; format: functional, organism-based; conditions: dose 8-11 µg/ml
Escherichia coli [7] = assay: Antibiotic adjuvant activity against multi-drug resistant Escherichia coli clinical isolate EC94474 assessed as inhibition of bacterial growth incubated for 18 hrs in presence of doxycycline by two fold broth microdilution checkerboard assay; format: functional
Pseudomonas aeruginosa [8] = assay: Antibiotic adjuvant activity against multi-drug resistant Pseudomonas aeruginosa clinical isolate PA264 assessed as minocycline MIC incubated for 18 hrs in presence of minocycline by two fold broth microdilution checkerboard assay; format: functional
Pseudomonas aeruginosa [9] = assay: Antibiotic adjuvant activity against multi-drug resistant Pseudomonas aeruginosa clinical isolate PA262 assessed as fold potentiation incubated for 18 hrs in presence of doxycycline by two fold broth microdilution checkerboard assay; format: functional
Escherichia coli [10] = assay: Antibiotic adjuvant activity against Escherichia coli ATCC 25922 assessed as fold potentiation incubated for 18 hrs in presence of rifampicin and CAMHB Mg2+ media by two fold broth microdilution checkerboard assay; format: functional
Pseudomonas aeruginosa [11] = assay: Antibacterial activity against multi-drug resistant Pseudomonas aeruginosa clinical isolate PA264 assessed as inhibition of bacterial growth incubated for 18 hrs by two fold broth microdilution assay; format: functional
Pseudomonas aeruginosa [12] = assay: Antibiotic adjuvant activity against multi-drug resistant Pseudomonas aeruginosa clinical isolate PA114228 assessed as minocycline MIC incubated for 18 hrs in presence of minocycline by two fold broth microdilution checkerboard assay; format: functional
Acinetobacter baumannii [13] = assay: Antibiotic adjuvant activity against multi-drug resistant Acinetobacter baumannii clinical isolate AB027 assessed as fractional inhibitory concentration index incubated for 18 hrs in presence of Rifampicin by two fold broth microdilution checkerboard assay; format: functional
Staphylococcus aureus [14] = assay: Antibiotic adjuvant activity against methicilin-resistant Staphylococcus aureus assessed as fold potentiation incubated for 18 hrs in presence of rifampicin by two fold broth microdilution checkerboard assay; format: functional
Pseudomonas aeruginosa [15] = assay: Antibiotic adjuvant activity against multi-drug resistant Pseudomonas aeruginosa clinical isolate PA259 assessed as fold potentiation incubated for 18 hrs in presence of doxycycline by two fold broth microdilution checkerboard assay; format: functional
Pseudomonas aeruginosa [16] = assay: Antibiotic adjuvant activity against multi-drug resistant Pseudomonas aeruginosa clinical isolate 114228 assessed as inhibition of bacterial growth incubated for 18 hrs in presence of Rifampicin by two fold broth microdilution checkerboard assay; format: functional
Acinetobacter baumannii [17] = assay: Antibiotic adjuvant activity against Acinetobacter baumannii ATCC 17978 assessed as rifampicin MIC incubated for 18 hrs in presence of Rifampicin by two fold broth microdilution checkerboard assay; format: functional
Pseudomonas aeruginosa [18] = assay: Antibiotic adjuvant activity against multi-drug resistant Pseudomonas aeruginosa clinical isolate PA259 assessed as fold potentiation incubated for 18 hrs in presence of Rifampicin by two fold broth microdilution checkerboard assay; format: functional
Pseudomonas aeruginosa [19] = assay: Antibiotic adjuvant activity against multi-drug resistant Pseudomonas aeruginosa clinical isolate 114228 assessed as fractional inhibitory concentration index incubated for 18 hrs in presence of Rifampicin by two fold broth microdilution checkerboard assay; format: functional
Escherichia coli [20] = assay: Antibiotic adjuvant activity against multi-drug resistant Escherichia coli clinical isolate 94393 assessed as rifampicin MIC incubated for 18 hrs in presence of Rifampicin by two fold broth microdilution checkerboard assay; format: functional
Acinetobacter baumannii [21] = assay: Antibiotic adjuvant activity against Acinetobacter baumannii ATCC 17978 assessed as fold potentiation incubated for 18 hrs in presence of rifampicin by two fold broth microdilution checkerboard assay relative to FBS; format: functional
Pseudomonas aeruginosa [22] = assay: Antibiotic adjuvant activity against multi-drug resistant Pseudomonas aeruginosa clinical isolate PA264 assessed as fold potentiation incubated for 18 hrs in presence of Rifampicin by two fold broth microdilution checkerboard assay; format: functional
Escherichia coli [23] = assay: Antibiotic adjuvant activity against multi-drug resistant Escherichia coli clinical isolate EC107115 assessed as fold potentiation incubated for 18 hrs in presence of doxycycline by two fold broth microdilution checkerboard assay; format: functional
Enterococcus faecium [24] = assay: Antibacterial activity against Enterococcus faecium 128149 assessed as inhibition of bacterial growth incubated for 18 hrs by two fold broth microdilution assay; format: functional
Acinetobacter baumannii [25] = assay: Antibiotic adjuvant activity against multi-drug resistant Acinetobacter baumannii clinical isolate 110193 assessed as rifampicin MIC incubated for 18 hrs in presence of Rifampicin by two fold broth microdilution checkerboard assay; format: functional
Cell membrane [26] = assay: Induction of outer membrane permeabilization in Escherichia coli ATCC 25922 assessed as increase fluorescence intensity by measuring NPN uptake factor by fluorescence based analysis; format: subcellular
Escherichia coli [27] = assay: Antibiotic adjuvant activity against Escherichia coli ATCC 25922 assessed as fold potentiation incubated for 18 hrs in presence of vancomycin by two fold broth microdilution checkerboard assay; format: functional
Cell membrane [28] = assay: Induction of outer membrane permeabilization in Escherichia coli ATCC 25922 assessed as increase fluorescence intensity by measuring NPN uptake factor at 4 to 8 uM by fluorescence based analysis; format: subcellular; conditions: dose 4-8 µM, TDE = time-dependent effect
Escherichia coli [29] = assay: Antibiotic adjuvant activity against multi-drug resistant Escherichia coli clinical isolate EC107115 assessed as doxycycline MIC incubated for 18 hrs in presence of doxycycline by two fold broth microdilution checkerboard assay; format: functional
Escherichia coli [30] = assay: Antibiotic adjuvant activity against Escherichia coli ATCC 25922 assessed as fold increase in MIC incubated for 18 hrs in presence of rifampicin and CAMHB Mg2+ media by two fold broth microdilution checkerboard assay; format: functional
Pseudomonas aeruginosa [31] = assay: Antibiotic adjuvant activity against multi-drug resistant Pseudomonas aeruginosa clinical isolate PA101243 assessed as inhibition of bacterial growth incubated for 18 hrs in presence of minocycline by two fold broth microdilution checkerboard assay; format: functional
Staphylococcus aureus [32] = assay: Antibiotic adjuvant activity against methicilin-resistant Staphylococcus aureus assessed as inhibition of bacterial growth incubated for 18 hrs in presence of rifampicin by two fold broth microdilution checkerboard assay; format: functional
Escherichia coli [33] = assay: Antibacterial activity against multi-drug resistant Escherichia coli clinical isolate 107115 assessed as inhibition of bacterial growth incubated for 18 hrs by two fold broth microdilution assay; format: functional
Escherichia coli [34] = assay: Antibacterial activity against multi-drug resistant Escherichia coli clinical isolate EC94474 assessed as inhibition of bacterial growth incubated for 18 hrs by two fold broth microdilution assay; format: functional
Enterobacterales = assay: Antibiotic adjuvant activity against Enterobacterales assessed as minocycline MIC incubated for 18 hrs in presence of minocycline by two fold broth microdilution checkerboard assay; format: functional
Pseudomonas aeruginosa [35] = assay: Antibiotic adjuvant activity against multi-drug resistant Pseudomonas aeruginosa clinical isolate PA262 assessed as fold potentiation incubated for 18 hrs in presence of minocycline by two fold broth microdilution checkerboard assay; format: functional

Cl.NC[C@H]1O[C@H](O[C@H]2[C@H](OCc3ccccc3)[C@@H](O[C@H]3O[C@H](COCc4ccccc4)[C@@H](OCc4ccccc4)[C@H](N)[C@H]3OCc3ccccc3)[C@H](N)C[C@@H]2N)[C@H](N)C[C@@H]1OCc1ccccc1
MIC (Enterococcus faecium [1]): 4 µg/mL
MIC (Escherichia coli [2]): 32 µg/mL
fold change (FC) (Acinetobacter baumannii [3]): 512
MIC (Acinetobacter baumannii [4]): 4 µg/mL
fractional inhibitory concentration index (FICI) (Pseudomonas aeruginosa [5]): 1.063
Activity (Acinetobacter baumannii [6]): inactive
MIC (Escherichia coli [7]): 8 µg/mL
MIC (Pseudomonas aeruginosa [8]): 16 µg/mL
fold change (FC) (Pseudomonas aeruginosa [9]): 1
fold change (FC) (Escherichia coli [10]): 2
MIC (Pseudomonas aeruginosa [11]): 128 µg/mL
MIC (Pseudomonas aeruginosa [12]): 128 µg/mL
fractional inhibitory concentration index (FICI) (Acinetobacter baumannii [13]): 0.125
fold change (FC) (Staphylococcus aureus [14]): 1
fold change (FC) (Pseudomonas aeruginosa [15]): 1
MIC (Pseudomonas aeruginosa [16]): 8 µg/mL
MIC (Acinetobacter baumannii [17]): 0.004 µg/mL
fold change (FC) (Pseudomonas aeruginosa [18]): 1
fractional inhibitory concentration index (FICI) (Pseudomonas aeruginosa [19]): 1.125
MIC (Escherichia coli [20]): 32 µg/mL
fold change (FC) (Acinetobacter baumannii [21]): 64
fold change (FC) (Pseudomonas aeruginosa [22]): 1
fold change (FC) (Escherichia coli [23]): 4
MIC (Enterococcus faecium [24]): 16 µg/mL
MIC (Acinetobacter baumannii [25]): 0.004 µg/mL
Activity (Cell membrane [26]): Dose-Dependent Effect
fold change (FC) (Escherichia coli [27]): 4
Activity (Cell membrane [28]): Tde
MIC (Escherichia coli [29]): 32 µg/mL
fold change (FC) (Escherichia coli [30]): >=2
MIC (Pseudomonas aeruginosa [31]): 8 µg/mL
MIC (Staphylococcus aureus [32]): 4 µg/mL
MIC (Escherichia coli [33]): 32 µg/mL
MIC (Escherichia coli [34]): 32 µg/mL
MIC (Enterobacterales): ≤ 4 µg/mL
fold change (FC) (Pseudomonas aeruginosa [35]): 1
